Results on 36 compounds are retold here after ChEMBL document CHEMBL6177963, “Development of acylhydrazone linked thiazoles as non-covalent dual inhibitors of SARS-CoV-2 proteases” (Eur J Med Chem, 2025).

As usually defined, the Ki is a dissociation constant, usually derived from enzyme kinetics or from competition with a known ligand. One may read the inhibition as the relative decrease from the control value, in per cent.

Assay [1] in a line: Inhibition of recombinant SARS-CoV-2 MPro overexpressed in Escherichia coli assessed as inhibition constant using VNSTLQISGLRLys(Dabcyl) as substrate by FRET assay. Also on record: species or system Severe acute respiratory syndrome coronavirus 2.
For assay [2], the system named is Severe acute respiratory syndrome coronavirus 2. As to the kind of experiment: Inhibition of recombinant SARS-CoV-2 MPro overexpressed in Escherichia coli assessed as inhibition constant using VNSTLQISGLRLys(Dabcyl) as substrate at 10 uM by FRET assay relative to control.

Molecules are shown by their SMILES.

On to `O=C(NNc1nc(-c2ccc(Br)cc2)cs1)c1ccc([N+](=O)[O-])cc1`, for which, in assay [1], the inhibitory constant (Ki) entry is recorded as “Not_active”. In addition, the inhibition in assay [2] was less than 50%.

Turning to `CCOC(=O)c1sc(NNC(=O)c2ccc3ccccc3c2)nc1C`, the Ki result in assay [1] is recorded as “Not_active”. Moreover, the inhibition in assay [2] was less than 50%.

`O=C(NNc1nc(-c2ccc(Cl)cc2)cs1)c1ccc(Br)cc1`: the Ki result in assay [1] is on record as “Not_active”. Moreover, in assay [2], the inhibition was less than 50%.

With `Cc1ccc(C(=O)NNc2nc(-c3ccc(Br)cc3)cs2)cc1`, the inhibition constant (Ki) entry in assay [1] is recorded as “Not_active”. Moreover, in assay [2], the inhibition is less than 50%.

For the compound `O=C(NNc1ncc(-c2ccc(Cl)cc2)s1)c1ccc2ccccc2c1`, the inhibition constant Ki entry in assay [1] was “Not_active”. Besides, the inhibition in assay [2] was less than 50%.

Regarding `CCOC(=O)c1sc(NNC(=O)c2ccccc2)nc1C`, the inhibitory constant (Ki) entry in assay [1] is recorded as “Not_active”. Besides, the inhibition in assay [2] is less than 50%.

As to `CCOC(=O)c1sc(NNC(=O)/C=C/c2ccccc2)nc1C`, in assay [1] (read-out: Ki), the inhibition constant Ki worked out at 1.1 µM.

On to `Cc1ccc(-c2csc(NNC(=O)c3ccc(F)cc3)n2)cc1`, for which the inhibition constant (Ki) in assay [1] (read-out: Ki) stood at 11.1 µM.

`O=C(NNc1nc(-c2ccc(Br)cc2)cs1)c1ccc(Cl)cc1`: the Ki result in assay [1] is on record as “Not_active”. Moreover, in assay [2], the inhibition was less than 50%.

`CCOC(=O)c1sc(NNC(=O)c2ccccc2C)nc1C`: the Ki entry in assay [1] is listed as “Not_active”. Besides, the inhibition in assay [2] was less than 50%.

For the compound `CCOC(=O)c1sc(NNC(=O)c2cccs2)nc1C`, the Ki in assay [1] (read-out: Ki) came out at 2.4 µM.

With `Oc1ccc(/C=N/Nc2nc(-c3ccc(Cl)cc3)cs2)cc1`, the inhibition constant Ki in assay [1] (read-out: Ki) amounted to 18.8 µM.

On to `CCOC(=O)c1sc(NNC(=O)c2ccc(C)cc2)nc1C`, for which the Ki result in assay [1] was “Not_active”. The inhibition in assay [2] was less than 50%.

Turning to `Cc1ccc(C(=O)NNc2nc(-c3ccc(C)cc3)cs2)cc1`, in assay [1], the Ki entry was “Not_active”. In addition, the inhibition in assay [2] was less than 50%.

For the compound `CCOC(=O)c1sc(NNC(=O)c2ccc([N+](=O)[O-])cc2)nc1C`, the inhibition constant Ki in assay [1] (read-out: Ki) came out at 0.73 µM.

In the case of `CCOC(=O)c1sc(N/N=C/c2cc3ccccc3nc2Cl)nc1C`, in assay [1], the Ki entry is on record as “Not_active”.

Turning to `O=C(NNc1nc(-c2ccc(Br)cc2)cs1)c1ccc(F)cc1`, in assay [1] (read-out: Ki), the inhibitory constant (Ki) was found to be 4.28 µM.

Regarding `Cc1ccc(C(=O)NNc2nc(-c3ccc(Cl)cc3)cs2)cc1`, the Ki in assay [1] (read-out: Ki) was 9.37 µM.

`CCOC(=O)c1sc(NNC(=O)c2ccccc2OC)nc1C`: the Ki result in assay [1] is reported as “Not_active”. In assay [2], the inhibition was less than 50%.

On to `Cc1ccc(-c2csc(NNC(=O)c3ccc(Br)cc3)n2)cc1`, for which, in assay [1], the Ki result was “Not_active”. Also, the inhibition in assay [2] is less than 50%.

As for `O=C(NNc1nc(-c2ccc(Cl)cc2)cs1)c1ccc(Cl)cc1`, in assay [1] (read-out: Ki), the inhibition constant (Ki) stood at 13.4 µM.

For the compound `COC(=O)c1sc(NNC(=O)c2ccc([N+](=O)[O-])cc2)nc1C`, the Ki entry in assay [1] is “Not_active”. In addition, in assay [2], the inhibition is less than 50%.

`CCOC(=O)c1sc(NNC(=O)c2cccc(Cl)c2)nc1C`: the inhibition constant Ki result in assay [1] is “Not_active”. The inhibition in assay [2] is less than 50%.

In the case of `Cc1ccc(-c2csc(NNC(=O)c3ccc([N+](=O)[O-])cc3)n2)cc1`, the inhibitory constant (Ki) in assay [1] (read-out: Ki) came out at 44.7 µM.

For `CCOC(=O)c1sc(NNC(=O)c2ccco2)nc1C`, the Ki entry in assay [1] was “Not_active”. Further, the inhibition in assay [2] is less than 50%.

On to `CCOC(=O)c1sc(NNC(=O)c2ccc(F)cc2)nc1C`, for which, in assay [1], the Ki entry is recorded as “Not_active”. The inhibition in assay [2] was less than 50%.

In the case of `CCOC(=O)c1sc(NNC(=O)c2cccc(Br)c2)nc1C`, the Ki result in assay [1] is “Not_active”. Moreover, in assay [2], the inhibition was less than 50%.

In the case of `CCOC(=O)c1sc(NNC(=O)c2ccc(Cl)cc2)nc1C`, in assay [1] (read-out: Ki), the Ki was 14.9 µM.

Take `O=C(NNc1nc(-c2ccc(Br)cc2)cs1)c1ccccc1`: in assay [1], the Ki entry is reported as “Not_active”. Further, the inhibition in assay [2] is less than 50%.

For `O=C(NNc1nc(-c2ccc(Cl)cc2)cs1)c1ccc(F)cc1`, the Ki in assay [1] (read-out: Ki) was found to be 10.6 µM.

Consider `Clc1nc2ccccc2cc1/C=N/Nc1nc(-c2ccccc2)cs1`, for which, in assay [1], the Ki entry is given as “Not_active”. Besides, the inhibition in assay [2] was less than 50%.

For `O=C(NNc1ncc(-c2ccc(Cl)cc2)s1)c1cccc(Cl)c1`, in assay [1], the inhibition constant (Ki) entry is “Not_active”. In assay [2], the inhibition was less than 50%.

Turning to `CCOC(=O)c1sc(NNC(=O)c2ccc(Br)cc2)nc1C`, the inhibition constant (Ki) in assay [1] (read-out: Ki) was 4.58 µM.

Consider `O=c1c2ccccc2[se]n1-c1ccccc1` [EBSELEN], for which, in assay [1] (read-out: Ki), the Ki came to 0.486 µM.

Turning to `O=C(NNc1nc(-c2ccc(Br)cc2)cs1)c1ccc(Br)cc1`, in assay [1], the Ki result is listed as “Not_active”. In addition, the inhibition in assay [2] is less than 50%.

For the compound `Cc1ccc(-c2csc(NNC(=O)c3ccc(Cl)cc3)n2)cc1`, the inhibition constant Ki result in assay [1] was “Not_active”. The inhibition in assay [2] is less than 50%.
